{"source": "patent US20040054130A1", "about": "“Insulin potentiating peptides” (priority 2000, published 2004)", "key": {"C57BL/6J ob/ob mice [1]": {"test_system": "C57BL/6J ob/ob mice", "assay": "Intraperitoneal glucose tolerance test (IPGTT) after chronic administration", "type": "in vivo, mouse", "description": "An intraperitoneal glucose tolerance test was conducted to determine whether the clearance of a glucose load was enhanced. […], five receiving saline and five receiving peptide 3. At 14 days after chronic administration of saline or peptide 3, mice were fasted for 4 hours, then anaesthetized and eye-bled for day 14 plasma metabolite analysis. Half of each saline or peptide 3 treatment group was given a single intraperitoneal injection of glucose (1 g/kg dissolved in saline), and the other half saline (equivalent dose). Mice were eye-bled at 30, 60 and 120 minutes after glucose administration, and blood glucose levels were determined."}, "adipose tissue": {"test_system": "adipose tissue", "assay": "Ex vivo glucose transport assay in adipose tissue of chronically treated mice", "type": "cell-based, mouse", "details": "after 14 days treatment", "description": "(c) Glucose transport assay Glucose transport in adipose tissue extracted from saline-treated and chronically peptide 3-treated mice was analyzed by an ex vivo glucose uptake assay. Adipose tissues was harvested from mice which had received saline (n=5) or peptide 3 (n=4) in the IPGTT, and used for a glucose transport assay. Mice were sacrificed by a lethal injection of pentabarbitone to the heart. Epididymal fat from male mice or peritoneal fat from female mice was used. Adipose tissues were rinsed in saline and then sliced into even pieces for weight determination. Tissues were placed in flasks and incubated in 2 ml KRB buffer (pH 7.4) containing D-glucose (10 mM final concentration) with vigorous agitation at 37° C. for 2 h under an atmosphere of carbogen. All samples were then placed on ice to reduce glycolysis. Tissues were removed from flasks, and the remaining solutions were analyzed for glucose concentrations using a glucose analyzer. Glucose uptake by each tissue sample was calculated, and compared to tissue free buffer controls."}, "C57BL/6J ob/ob mice [2]": {"test_system": "C57BL/6J ob/ob mice", "assay": "Plasma insulin radioimmunoassay after chronic administration", "type": "in vivo, mouse", "details": "after 14 days treatment", "description": "Mice selected for this experiment were initially fasted for 4 hours, then anaesthetized with a single injection of sodium pentobarbitone (35 mg/kg). A blood sample was collected from each mouse by eye-bleed for the assessment of plasma glucose and insulin levels (day 0). Collected blood samples were stored at −20° C. until analysis was performed. A single Alzet mini-pump (#1002, Alzet, USA) containing either sterile saline (100 μl; n=14) or peptide 3 (20 μmol/kg dissolved in 100 μl saline; n=14) was inserted under the skin between the scapula of the mice. The incision was clamped and disinfected using iodine. The pumps were left for 14 days, and 5 body-weight, and food measurements were recorded during this period, at days 0, 4, 7, 10 and 14. Blood samples were collected on day 0 and 14 days post-saline (n=5) or peptide 3 (n=4) administration for plasma glucose analysis. The results reported below are expresses as mean +/− standard error. (a) Plasma insulin Plasma insulin levels were quantitatively determined in ob/ob mice, using an insulin radioimmunoassay kit (Linco Research Inc. USA) according to the manufacturer's instructions."}, "[3]": {"test_system": "Zucker (fa/fa) rat hemidiaphragm muscle", "assay": "In vitro glycogen synthesis (glucose incorporation into glycogen) in hemidiaphragm muscle with exogenous insulin", "type": "cell-based", "description": "In vitro insulin-potentiating effects of the synthetic peptide analogues were assessed by measuring the rates of exogenous glucose incorporation into glycogen in rat hemidiaphragms (Lim et al, 1992). Hemidiaphragms from overnight-fasted Zucker fatty(fa/fa) female rats were dissected, and divided into segments of approximate 35-50 mg each. Tissues from the same rat were used for all groups. The tissue was incubated in 2 ml of Krebs-Ringer bicarbonate (KRB) buffer (pH 7.4) containing [^14C]glucose (5.5 mM, final specific activity 0.05 mCi/mmol) under an atmosphere of 95% 02-5% CO2 at 37° C. for 1.5 hr. After incubation, tissues were removed, washed with cold buffer and blotted. Tissues were digested, the muscle glycogen was precipitated and the ^14C-radioactivity was counted in a Wallac 1410 liquid scintillation counter. The biological activity of peptide analogues was measured as the rate of mmol glucose incorporation into muscle glycogen/g tissue/hr.\nThe sensitivity of hemidiaphragm muscle tissue to insulin (0.1-100 mU/ml) on glycogen synthesis was first analyzed. The dose response curves for peptide analogues on the insulin-potentiating effect to glycogen synthesis were then measured using cumulative increasing concentrations (10^−3 10 μmol/ml) of peptides in the presence of insulin (1 mU/ml). The biological activity of each peptide analogue was measured as the rate of glucose incorporation into muscle glycogen (μmol/g tissue/hr), and represented by the mean±SEM from eight determinations.\nTo determine the insulin-potentiating effect of the peptide analogues, the rates of incorporation of glucose into muscle glycogen were measured. The rates of glycogen synthesis (μmol/g tissue/hr) were 0.52±0.05, 0.60±0.04, 1.27±0.06 and 1.52±0.07 inresponse to 0.33, 1, 3.33 and 10 mU/ml insulin respectively, as shown in FIG. 1.\nThe insulin-potentiating effect of the peptide analogues was then observed by studying their dose response. curves for glucose incorporation into glycogen in the presence of 1 mU/ml exogenous insulin. The effects of peptides 1, 3, 4, 6, 7, 8 and 10 were evident at doses higher than 0.01 μmol/ml, and continued to increase with increasing peptide concentration to 1 μmol/ml, as shown in FIGS. 2A and 2B.\nThe activity of each analogue was assessed by in vitro measurement of glycogen synthesis in muscle, as described above."}, "[4]": {"test_system": "Zucker fatty (fa/fa) rats", "assay": "Basal blood glucose determination after i.p. peptide", "type": "in vivo, rat", "details": "10 μmol/kg body weight i.p., over 150 min, vs saline", "description": "Overnight-fasted Zucker fatty(fa/fa) female rats were anaesthetized with sodium pentobarbitone (60 mg/kg body weight). After 45 min, basal blood glucose samples were taken from the tail vein, followed immediately by intraperitoneal (i.p.) injection of saline (control) or the peptide analogue (test, 10 μmol/kg body weight) in 0.4 ml of saline. Blood samples were taken at 15, 30, 60, 90, 120, 150 minutes after injection, and the blood glucose level in each sample was measured immediately by the glucose oxidase method, using a YSI Model-2300 STAT glucose analyzer (Yellow Spring, Ohio). Six animals for each group were used.\nThe reduction of basal blood glucose levels in animals by different peptide analogues administered intraperitoneally (i.p.)at a dose of 10 μmol/kg body weight was measured for over 150 min."}}, "note": "Square brackets hold non-standard residues; d marks the D form. Ends that are not written are not given here.", "data": [{"substance": "Arg-D-Ala-Phe-Phe-NH2 (R[dA]FF-NH2; N-terminus assumed; SMILES C[C@@H](NC(=O)[C@@H](N)CCCNC(=N)N)C(=O)N[C@@H](Cc1ccccc1)C(=O)N[C@@H](Cc1ccccc1)C(N)=O) [Peptide 3]", "values": [{"measurement": "increase in plasma glucose after glucose bolus", "setting": "C57BL/6J ob/ob mice [1]; 30 min after 1 g/kg glucose i.p.", "value": 115, "unit": "%"}, {"measurement": "reduction of blood glucose compared to saline-treated mice", "setting": "C57BL/6J ob/ob mice [1]; 120 min after glucose injection", "value": 47, "unit": "%"}, {"measurement": "lower basal blood glucose level compared to saline-treated mice", "setting": "C57BL/6J ob/ob mice [1]; prior to glucose injection, day 14", "value": 46.1, "unit": "%"}, {"measurement": "more glucose transported than adipose tissue from saline-treated mice", "setting": "adipose tissue", "value": 38, "unit": "%"}, {"measurement": "glucose transport by adipose tissue", "setting": "adipose tissue; 10 mM D-glucose, 2 h, 37° C.", "value": "1.67±0.18", "unit": "nmol/mg tissue/h"}, {"measurement": "plasma insulin level", "setting": "C57BL/6J ob/ob mice [2]", "value": "17.10 ± 5.99", "unit": "ng/mL"}, {"measurement": "maximum stimulation of the rate of glycogen synthesis", "setting": "[3]; 10 μmol/ml peptide, 1 mU/ml insulin", "value": "up to 1.44±0.04 mol/g tissue/hr"}, {"measurement": "in vitro glycogen synthesis", "setting": "[3]; 0.01-1 μmol/ml peptide (p<0.05), FIG. 2A", "value": "significantly increased"}, {"measurement": "Activity", "setting": "[3]; Table 6 (corrected), summary of Table 5", "value": "active"}, {"measurement": "hypoglycaemic effect (reduction of basal blood glucose level)", "setting": "[4]", "value": "significant hypoglycaemic effects"}, {"measurement": "hypoglycaemic effect (reduction of basal blood glucose level)", "setting": "[4]; listed as Arg-D-Ala-Phe-Phe amide", "value": "Increased potency"}]}]}
